Assay results as given in ChEMBL document CHEMBL1156251, “Structure--activity relationships of polymyxin antibiotics” (J Med Chem, 2010).
≈ marks a conversion by molar mass, not a printed value.

What was measured:
Escherichia coli = test: Antimicrobial activity against Escherichia coli; assay type: functional
Salmonella enterica = test: Antimicrobial activity against Salmonella enterica; assay type: functional
Pseudomonas aeruginosa = test: Antimicrobial activity against Pseudomonas aeruginosa; assay type: functional, organism-based

Row | SMILES | MIC (Escherichia coli) | MIC (Salmonella enterica) [µM] | MIC (Pseudomonas aeruginosa) [µM] | IC50 (Pseudomonas aeruginosa) [µg/mL]
1 | CCC(C)CCCCC(=O)N[C@@H](CCN)C(=O)N[C@H](C(=O)N[C@@H](CO)C(=O)N[C@H]1CCNC(=O)[C@H]([C@@H](C)O)NC(=O)[C@H](CCN)NC(=O)[C@H](CCN)NC(=O)[C@H](CC(C)C)NC(=O)[C@@H](CC(C)C)NC(=O)[C@H](CCN)NC1=O)[C@@H](C)O (some centres undefined) | 0.8 µg/mL | – | – | –
2 | CC(C)C[C@@H]1NC(=O)[C@@H](CC(C)C)NC(=O)[C@H](CCN)NC(=O)[C@@H](NC(=O)[C@H](CCN)NC(=O)[C@@H](NC(=O)[C@H](CCN)NC(=O)CCCc2cc3ccc4cccc5ccc(c2)c3c45)[C@@H](C)O)CCNC(=O)[C@H]([C@@H](C)O)NC(=O)[C@H](CCN)NC(=O)[C@H](CCN)NC1=O | 2 µM | 2 (≈ 2.6 µg/mL) | 1 (≈ 1.3 µg/mL) | –
3 | CCC(C)CCCCC(=O)N[C@@H](CCCCN)C(=O)N[C@H](C(=O)N[C@@H](CCCCN)C(=O)N[C@H]1CCNC(=O)[C@H]([C@@H](C)O)NC(=O)[C@H](CCCCN)NC(=O)[C@H](CCCCN)NC(=O)[C@H](CC(C)C)NC(=O)[C@@H](Cc2ccccc2)NC(=O)[C@H](CCCCN)NC1=O)[C@@H](C)O (some centres undefined) | 0.2 µg/mL | – | – | –
4 | CCC(C)CCCCC(=O)N[C@@H](CCNC=O)C(=O)N[C@H](C(=O)N[C@@H](CCNC=O)C(=O)N[C@H]1CCNC(=O)[C@H]([C@@H](C)O)NC(=O)[C@H](CCN)NC(=O)[C@H](CCNC=O)NC(=O)[C@H](CC(C)C)NC(=O)[C@@H](Cc2ccccc2)NC(=O)[C@H](CCN)NC1=O)[C@@H](C)O (some centres undefined) | – | – | – | 6.1 (≈ 4.74 µM)
5 | CCC(C)CCCCC(=O)N[C@@H](CCNC=O)C(=O)N[C@H](C(=O)N[C@@H](CCNC=O)C(=O)N[C@H]1CCNC(=O)[C@H]([C@@H](C)O)NC(=O)[C@H](CCNC=O)NC(=O)[C@H](CCNC=O)NC(=O)[C@H](CC(C)C)NC(=O)[C@@H](Cc2ccccc2)NC(=O)[C@H](CCN)NC1=O)[C@@H](C)O (some centres undefined) | – | – | – | 42 (≈ 31.9 µM)
6 | CCC(C)CCCCC(=O)N[C@@H](CCNC=O)C(=O)N[C@H](C(=O)N[C@@H](CCNC=O)C(=O)N[C@H]1CCNC(=O)[C@H]([C@@H](C)O)NC(=O)[C@H](CCNC=O)NC(=O)[C@H](CCNC=O)NC(=O)[C@H](CC(C)C)NC(=O)[C@@H](Cc2ccccc2)NC(=O)[C@H](CCNC=O)NC1=O)[C@@H](C)O (some centres undefined) | – | – | – | 60 (≈ 44.7 µM)
7 | CCC(C)CCCCC(=O)N[C@@H](CCNC(N)=O)C(=O)N[C@H](C(=O)N[C@@H](CCNC(N)=O)C(=O)N[C@H]1CCNC(=O)[C@H]([C@@H](C)O)NC(=O)[C@H](CCNC(N)=O)NC(=O)[C@H](CCNC(N)=O)NC(=O)[C@H](CC(C)C)NC(=O)[C@@H](Cc2ccccc2)NC(=O)[C@H](CCN)NC1=O)[C@@H](C)O (some centres undefined) | – | – | – | 80 (≈ 58.2 µM)

Continued, values first:

Row | MIC (Escherichia coli) | MIC (Salmonella enterica) [µM] | MIC (Pseudomonas aeruginosa) [µM] | IC50 (Pseudomonas aeruginosa) [µg/mL] | SMILES
8 | 2 µM | 1 (≈ 1.18 µg/mL) | 1 (≈ 1.18 µg/mL) | – | CC(C)C[C@@H]1NC(=O)[C@@H](CC(C)C)NC(=O)[C@H](CCN)NC(=O)[C@@H](NC(=O)[C@H](CCN)NC(=O)[C@@H](NC(=O)[C@H](CCN)NC(=O)CCCC2CCCCC2)[C@@H](C)O)CCNC(=O)[C@H]([C@@H](C)O)NC(=O)[C@H](CCN)NC(=O)[C@H](CCN)NC1=O
9 | 2 µM | 2 (≈ 2.67 µg/mL) | 2 (≈ 2.67 µg/mL) | – | CC(C)C[C@@H]1NC(=O)[C@@H](Cc2ccccc2)NC(=O)[C@H](CCN)NC(=O)[C@@H](NC(=O)[C@H](CCN)NC(=O)[C@@H](NC(=O)[C@H](CCN)NC(=O)CCCc2cc3ccc4cccc5ccc(c2)c3c45)[C@@H](C)O)CCNC(=O)[C@H]([C@@H](C)O)NC(=O)[C@H](CCN)NC(=O)[C@H](CCN)NC1=O
10 | 11 µg/mL | – | – | – | CCCCC(=O)N[C@@H](CCN)C(=O)N[C@@H](C(=O)N[C@@H](CCN)C(=O)N[C@H]1CCNC(=O)[C@@H]([C@@H](C)O)NC(=O)[C@H](CCN)NC(=O)[C@H](CCN)NC(=O)[C@H](CC(C)C)NC(=O)[C@@H](Cc2ccccc2)NC(=O)[C@H](CCN)NC1=O)[C@@H](C)O
11 | 0.4 µg/mL | – | – | – | CCC(C)CCCCC(=O)N[C@@H](CCN)C(=O)N[C@H](C(=O)N[C@@H](CCN)C(=O)N[C@H]1CCNC(=O)[C@H]([C@@H](C)O)NC(=O)[C@H](CCN)NC(=O)[C@H](CCN)NC(=O)[C@H]([C@@H](C)CC)NC(=O)[C@@H](CC(C)C)NC(=O)[C@H](CCN)NC1=O)[C@@H](C)O (some centres undefined)
12 | – | – | – | 7.6 (≈ 6.17 µM) | CCC(C)CCCCC(=O)N[C@@H](CCNC=O)C(=O)N[C@H](C(=O)N[C@@H](CCN)C(=O)N[C@H]1CCNC(=O)[C@H]([C@@H](C)O)NC(=O)[C@H](CCN)NC(=O)[C@H](CCN)NC(=O)[C@H](CC(C)C)NC(=O)[C@@H](Cc2ccccc2)NC(=O)[C@H](CCN)NC1=O)[C@@H](C)O (some centres undefined)
13 | – | – | – | 4.2 (≈ 3.33 µM) | CCC(C)CCCCC(=O)N[C@@H](CCNC=O)C(=O)N[C@H](C(=O)N[C@@H](CCNC=O)C(=O)N[C@H]1CCNC(=O)[C@H]([C@@H](C)O)NC(=O)[C@H](CCN)NC(=O)[C@H](CCN)NC(=O)[C@H](CC(C)C)NC(=O)[C@@H](Cc2ccccc2)NC(=O)[C@H](CCN)NC1=O)[C@@H](C)O (some centres undefined)
